Biological target: T1, Kynurenine--oxoglutarate transaminase 1 (Homo sapiens, UniProt Q16773)
T1 sequence (Q16773 whole entry): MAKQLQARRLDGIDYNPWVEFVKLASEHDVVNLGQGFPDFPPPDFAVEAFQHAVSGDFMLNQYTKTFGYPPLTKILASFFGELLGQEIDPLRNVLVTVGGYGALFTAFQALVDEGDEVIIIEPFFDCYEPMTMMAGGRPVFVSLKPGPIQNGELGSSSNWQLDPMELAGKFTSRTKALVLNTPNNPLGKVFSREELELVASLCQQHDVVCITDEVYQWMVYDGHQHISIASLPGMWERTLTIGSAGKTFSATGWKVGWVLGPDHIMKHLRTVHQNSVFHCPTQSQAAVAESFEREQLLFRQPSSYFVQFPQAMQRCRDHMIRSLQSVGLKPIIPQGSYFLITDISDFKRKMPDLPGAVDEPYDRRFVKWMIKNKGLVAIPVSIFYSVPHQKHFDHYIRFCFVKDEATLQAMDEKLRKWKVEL
Experiment: Inhibition of human recombinant KAT1 after 20 mins by RP-HPLC analysis

SMILES	IC50
CCOC(=O)/C(CCCC(=O)O)=N\Nc1ccc([N+](=O)[O-])cc1	179 µM
CCOC(=O)/C(CCCC(=O)O)=N\Nc1ccc(Br)cc1	21 µM
CCOC(=O)/C(CCCC(=O)O)=N\Nc1ccc(I)cc1	34 µM
CCOC(=O)/C(CCCC(=O)O)=N\Nc1cccc(Cl)c1	20 µM
CCOC(=O)/C(CCCC(=O)O)=N\Nc1ccc(C)cc1	33 µM
CCOC(=O)/C(CCCC(=O)O)=N\Nc1ccc(Cl)cc1	20 µM
CCOC(=O)/C(CCCC(=O)O)=N\Nc1ccc(OC)cc1	43 µM

The remaining lines, values ahead:

IC50	SMILES
> 6000 µM	COc1ccc2[nH]c(C(=O)O)c(CCC(=O)O)c2c1
666 µM	O=C(O)CCc1c(C(=O)O)[nH]c2ccc([N+](=O)[O-])cc12
293 µM	O=C(O)CCc1c(C(=O)O)[nH]c2ccc(Cl)cc12
> 1000 µM	Cc1ccc2[nH]c(C(=O)O)c(CCC(=O)O)c2c1
271 µM	O=C(O)CCc1c(C(=O)O)[nH]c2ccc(Br)cc12

Biological target: T2, Kynurenine--oxoglutarate transaminase 1 (Homo sapiens) (UniProt Q16773)
T2 sequence (whole entry): T1 sequence (Q16773 whole entry)
Experiment: Ratio of compound IC50 to indole-3-propionic acid IC50 for human recombinant KAT1

Ratio IC50	SMILES
7	CCOC(=O)/C(CCCC(=O)O)=N\Nc1cccc(Cl)c1
7	CCOC(=O)/C(CCCC(=O)O)=N\Nc1ccc(Cl)cc1

Source: ChEMBL document CHEMBL1949584, “Design and synthesis of novel inhibitors of human kynurenine aminotransferase-I” (Bioorg Med Chem Lett, 2012)
